Results: patent US7557098B2, “1-aryl- or 1-alkylsulfonyl-heterocyclylbenzazoles as 5-hydroxytryptamine-6 ligands” (Wyeth, priority 2000, dated 2009)
Where a name gives a salt, the structure may show the parent alone. Read-outs that look alike come from different tables or passages of the source.

Experiments:
[1] = target: T1, human cloned 5-HT6 receptors (Homo sapiens, UniProt P50406); test: 5-HT6 binding affinity, [3H]-LSD displacement on membranes of Hela cells expressing human cloned 5-HT6 receptors
T1 construct: expressed in transfected cells; host or cells: Hela cells

[2] = [3H]-LSD 3.0 nM, Hela cell membranes, 120 min at room temperature, read-out: 5-HT6 binding Ki

T1 sequence (P50406 whole entry): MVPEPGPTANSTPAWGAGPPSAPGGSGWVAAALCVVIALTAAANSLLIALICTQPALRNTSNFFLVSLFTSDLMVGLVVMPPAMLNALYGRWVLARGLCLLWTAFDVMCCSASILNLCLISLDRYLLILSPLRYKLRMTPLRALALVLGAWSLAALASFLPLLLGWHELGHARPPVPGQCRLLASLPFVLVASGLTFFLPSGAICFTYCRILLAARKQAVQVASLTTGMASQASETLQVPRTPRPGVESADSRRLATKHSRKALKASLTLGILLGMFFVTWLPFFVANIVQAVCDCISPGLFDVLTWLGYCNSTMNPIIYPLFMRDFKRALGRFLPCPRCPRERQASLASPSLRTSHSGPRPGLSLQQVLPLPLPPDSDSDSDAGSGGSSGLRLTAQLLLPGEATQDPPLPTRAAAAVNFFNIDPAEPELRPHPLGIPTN

Row | Structure (SMILES) | Ki [1, 2] | melting point | Ki [1]
1 | O=S(=O)(c1ccccc1)n1ccc2c(N3CCN(Cc4ccncc4)CC3)cccc21 [Example 40] | 0.004 µM |  | 
2 | COc1cccc(CN2CCN(c3cccc4c3ccn4S(=O)(=O)c3ccc(OC)c(OC)c3)CC2)c1 [Example 48] | 0.014 µM |  | 
3 | O=S(=O)(c1ccccc1Br)n1ccc2c(N3CCN(Cc4cccnc4)CC3)cccc21 [Example 44] | 0.001 µM |  | 
4 | Nc1ccc(S(=O)(=O)n2ccc3c(N4CCNCC4)cccc32)cc1 [Example 5] |  |  | 0.001 µM
5 | O=S(=O)(c1c(Cl)nc2sccn12)n1ccc2c(N3CCN(Cc4ccncc4)CC3)cccc21 [Example 46] | 0.005 µM |  | 
6 | O=S(=O)(c1ccccc1Br)n1ccc2c(N3CCN(Cc4ccncc4)CC3)cccc21 [Example 43] | 0.007 µM |  | 
7 | O=S(=O)(c1ccccc1)n1ccc2c(N3CCN(C4=NCCN4)CC3)cccc21 [Example 14, 4-[4-(4,5-Dihydro-1H-imidazol-2-yl)-piperazin-1-yl]-1-(phenylsulfonyl)-1H-indole] |  |  | 0.024 µM
8 | Nc1ccc(S(=O)(=O)n2ccc3c(N4CCN(C5=NCCN5)CC4)cccc32)cc1 [Example 18] | 0.006 µM |  | 
9 | COc1ccc(S(=O)(=O)n2ccc3c(N4CCN(Cc5cccnc5)CC4)cccc32)cc1OC [Example 50] | 0.017 µM |  | 
10 | COc1ccc(S(=O)(=O)n2ccc3c(N4CCN(Cc5ccncc5)CC4)cccc32)cc1OC [Example 49] | 0.01 µM |  | 
11 | Nc1ccc(S(=O)(=O)n2ccc3c(N4CCN(Cc5cccnc5)CC4)cccc32)cc1 [Example 53] | 0.004 µM |  | 
12 | O=S(=O)(c1ccccc1)n1ccc2c(N3CCN(Cc4cccnc4)CC3)cccc21 [Example 41] | 0.007 µM |  | 
13 | COc1ccc(S(=O)(=O)n2ccc3c(N4CCN(Cc5cccc([N+](=O)[O-])c5)CC4)cccc32)cc1OC [Example 33] | 0.045 µM |  | 
14 | CC(=O)N1CCN(c2cccc3c2ccn3S(=O)(=O)c2c(Cl)nc3sccn23)CC1 [Example 30] | 0.22 µM |  | 
15 | O=S(=O)(c1ccccc1)n1ncc2c(N3CCN(CCc4ccccc4)CC3)cccc21 [Example 59, 4-[4-(2-phenylethyl)piperazin-1-yl]-1-(phenylsulfonyl)-1H-indazole hydrochloride] | 0.001 µM |  | 
16 | O=S(=O)(c1ccccc1Br)n1ccc2c(N3CCNCC3)cccc21 [Example 2] |  |  | 0.002 µM
17 | O=S(=O)(c1ccccc1)n1ncc2c(N3CCN(Cc4ccccc4)CC3)cccc21 [Example 57, 4-(4-Benzylpiperazin-1-yl)-1-(phenylsulfonyl)-1H-indazole hydrochloride] | 0.014 µM |  | 
18 | O=S(=O)(c1ccccc1)n1ncc2c(N3CCN(CCOc4ccc(F)cc4)CC3)cccc21 [Example 60] | 0.306 µM | 184 to 186 °C | 
19 | COc1cccc(CN2CCN(c3cccc4c3ccn4S(=O)(=O)c3ccc(N)cc3)CC2)c1 [Example 51] | 0.007 µM |  | 
20 | O=S(=O)(c1c(Cl)nc2sccn12)n1ccc2c(N3CCN(Cc4ccccc4)CC3)cccc21 [Example 27] | 0.056 µM |  | 
21 | O=S(=O)(c1ccccc1)n1ncc2c(N3CCNCC3)cccc21 [Example 58, 1-(Phenylsulfonyl)-4-(1-piperazinyl)-1H-indazole hydrochloride] |  |  | 0.0003 µM
22 | O=S(=O)(c1c(Cl)nc2sccn12)n1ccc2c(N3CCNCC3)cccc21 [Example 3] |  |  | 0.001 µM
23 | O=S(=O)(c1ccc(Br)s1)n1ncc2cc(N3CCNCC3)ccc21 [Example 81] |  |  | 0.044 µM
24 | CN1CCN(c2cccc3c2ccn3S(=O)(=O)c2ccc(N)cc2)CC1 [Example 36] | 0.003 µM |  | 
25 | Nc1ccc(S(=O)(=O)n2ccc3c(N4CCN(Cc5ccc(Cl)s5)CC4)cccc32)cc1 [Example 37] | 0.059 µM |  | 
26 | COc1cccc(CN2CCN(c3cccc4c3ccn4S(=O)(=O)c3ccccc3Br)CC2)c1 [Example 42] | 0.004 µM |  | 
27 | Nc1ccc(S(=O)(=O)n2ccc3c(N4CCN(Cc5ccncc5)CC4)cccc32)cc1 [Example 52] | 0.025 µM |  | 
28 | O=S(=O)(c1c(Cl)nc2sccn12)n1ccc2c(N3CCN(Cc4cccnc4)CC3)cccc21 [Example 47] | 0.006 µM |  | 
29 | Nc1ccc(S(=O)(=O)n2ccc3c(N4CCN(Cc5cccc([N+](=O)[O-])c5)CC4)cccc32)cc1 [Example 38] | 0.005 µM |  | 
30 | Nc1ccc(S(=O)(=O)n2ccc3c(N4CCN(Cc5ccccc5)CC4)cccc32)cc1 [Example 35] | 0.015 µM |  | 

Further lines, with some results ahead:

Row | Ki [1, 2] | melting point | Structure (SMILES) | Ki [1]
31 | 0.003 µM |  | O=C(CCCN1CCN(c2cccc3c2cnn3S(=O)(=O)c2ccccc2)CC1)c1ccc(F)cc1 [Example 61] | 
32 | 0.172 µM | 233 to 235 °C | O=S(=O)(C=Cc1ccccc1)n1ncc2c(N3CCN(Cc4ccccc4)CC3)cccc21 [Example 65] | 
33 | 0.084 µM | 240 to 241 °C | O=S(=O)(c1ccc(F)cc1)n1ncc2c(N3CCN(Cc4ccccc4)CC3)cccc21 [Example 66] | 
34 | 0.006 µM | 188 to 190 °C | O=S(=O)(c1ccccc1)n1ncc2c(N3CCN(CCCc4ccccc4)CC3)cccc21 [Example 63] | 
35 | 0.006 µM |  | O=S(=O)(c1cc(Cl)c(Cl)s1)n1ncc2ccc(N3CCNCC3)cc21 [Example 91] | 
36 | 0.087 µM | 238 to 239 °C | O=S(=O)(c1ccc(Cl)cc1)n1ncc2c(N3CCN(Cc4ccccc4)CC3)cccc21 [Example 67] | 
37 | 0.03 µM |  | O=S(=O)(c1cc(Cl)c(Cl)s1)n1ncc2cc(N3CCNCC3)ccc21 [Example 90] | 
38 | 0.002 µM | 258 to 260 °C | CCCN1CCN(c2cccc3c2cnn3S(=O)(=O)c2ccccc2)CC1 [Example 64] | 
39 | 0.024 µM |  | Cc1c(S(=O)(=O)n2ncc3ccc(N4CCNCC4)cc32)sc2ccc(Cl)cc12 [Example 89] | 
40 | 0.116 µM | 206 to 209 °C | COc1ccc(S(=O)(=O)n2ncc3c(N4CCN(Cc5ccccc5)CC4)cccc32)cc1 [Example 69] | 
41 | 0.037 µM |  | O=S(=O)(c1ccc2ccccc2c1)n1ncc2ccc(N3CCNCC3)cc21 [Example 96] | 
42 | 0.012 µM | 202 to 205 °C | O=C(CN1CCN(c2cccc3c2cnn3S(=O)(=O)c2ccccc2)CC1)c1ccccc1 [Example 62] | 
43 | 0.081 µM | 235 to 237 °C | O=S(=O)(c1cc(Cl)c(Cl)s1)n1ncc2c(N3CCN(Cc4ccccc4)CC3)cccc21 [Example 71] | 
44 | 0.251 µM | 229 to 231 °C | O=S(=O)(c1ccc(OC(F)(F)F)cc1)n1ncc2c(N3CCN(Cc4ccccc4)CC3)cccc21 [Example 70] | 
45 | 0.038 µM |  | CCCCOc1ccc(S(=O)(=O)n2ccc3cc(N4CCNCC4)ccc32)cc1 [Example 83] | 
46 | 0.019 µM |  | O=S(=O)(c1ccc(Br)cc1)n1ncc2cc(N3CCNCC3)ccc21 [Example 79] | 
47 | 0.034 µM |  | Nc1ccc(S(=O)(=O)n2ccc3cc(N4CCNCC4)ccc32)cc1 [Example 73, 1-(4-Aminophenylsulfonyl)-5-piperazin-1-yl-1H-indole hydrochloride] | 
48 | 0.018 µM |  | O=S(=O)(c1ccc(I)cc1)n1ncc2cc(N3CCNCC3)ccc21 [Example 101] | 
49 | 0.056 µM | 215 to 217 °C | Cc1ccc(S(=O)(=O)n2ncc3c(N4CCN(Cc5ccccc5)CC4)cccc32)cc1 [Example 72] | 
50 | 0.044 µM |  | Cc1nn(C)c(Cl)c1S(=O)(=O)n1ccc2cc(N3CCNCC3)ccc21 [Example 86] | 
